Experimental data taken from paper PMC3961306, “Comparison of the Cancer Gene Targeting and Biochemical Selectivities of All Targeted Kinase Inhibitors Approved for Clinical Use” (PLoS ONE, 2014).

Assays:
Test in all cases: Kinase profiling in a biochemical assay panel (mobility shift assays and ELISA), %-inhibition at 1 μM; selectivity entropy
[1] = target: T1, panel of more than 300 wild-type and mutant kinases (313 kinase panel) (Homo sapiens, UniProt Q9NRM7)
T1 sequence (Q9NRM7 1-1088): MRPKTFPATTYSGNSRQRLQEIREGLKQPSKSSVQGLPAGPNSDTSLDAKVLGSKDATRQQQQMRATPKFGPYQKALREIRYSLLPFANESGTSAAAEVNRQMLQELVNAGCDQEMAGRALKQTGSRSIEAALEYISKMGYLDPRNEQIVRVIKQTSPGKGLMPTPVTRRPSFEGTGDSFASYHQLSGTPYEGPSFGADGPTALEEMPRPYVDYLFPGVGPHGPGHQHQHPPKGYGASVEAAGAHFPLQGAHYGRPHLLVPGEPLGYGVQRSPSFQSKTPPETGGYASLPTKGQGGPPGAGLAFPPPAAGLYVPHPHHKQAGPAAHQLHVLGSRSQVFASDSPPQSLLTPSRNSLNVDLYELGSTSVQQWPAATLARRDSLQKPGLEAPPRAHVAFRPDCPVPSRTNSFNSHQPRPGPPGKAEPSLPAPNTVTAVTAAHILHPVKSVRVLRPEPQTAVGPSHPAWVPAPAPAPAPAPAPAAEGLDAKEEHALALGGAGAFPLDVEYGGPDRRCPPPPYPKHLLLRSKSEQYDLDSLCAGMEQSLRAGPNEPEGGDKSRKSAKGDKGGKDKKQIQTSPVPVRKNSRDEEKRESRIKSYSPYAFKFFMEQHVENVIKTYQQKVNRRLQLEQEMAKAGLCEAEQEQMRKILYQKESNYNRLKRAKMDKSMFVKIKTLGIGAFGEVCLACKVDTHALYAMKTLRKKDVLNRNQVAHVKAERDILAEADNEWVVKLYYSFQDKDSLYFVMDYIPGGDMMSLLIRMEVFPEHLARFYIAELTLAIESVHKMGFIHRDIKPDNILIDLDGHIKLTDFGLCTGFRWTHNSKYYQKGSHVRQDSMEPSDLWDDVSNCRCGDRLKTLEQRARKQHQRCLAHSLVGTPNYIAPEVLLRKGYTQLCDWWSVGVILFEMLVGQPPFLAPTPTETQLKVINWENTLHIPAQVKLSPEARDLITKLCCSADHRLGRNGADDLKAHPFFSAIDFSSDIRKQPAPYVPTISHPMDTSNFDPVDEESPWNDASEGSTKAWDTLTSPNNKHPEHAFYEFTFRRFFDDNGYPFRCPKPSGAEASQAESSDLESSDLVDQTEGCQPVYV

[2] = target: panel of more than 300 wild-type and mutant kinases (313 kinase panel) (Homo sapiens, UniProt P10721)
panel of more than 300 wild-type and mutant kinases (313 kinase panel) (Homo sapiens, UniProt P10721), sequence (P10721 26-976, change not shown): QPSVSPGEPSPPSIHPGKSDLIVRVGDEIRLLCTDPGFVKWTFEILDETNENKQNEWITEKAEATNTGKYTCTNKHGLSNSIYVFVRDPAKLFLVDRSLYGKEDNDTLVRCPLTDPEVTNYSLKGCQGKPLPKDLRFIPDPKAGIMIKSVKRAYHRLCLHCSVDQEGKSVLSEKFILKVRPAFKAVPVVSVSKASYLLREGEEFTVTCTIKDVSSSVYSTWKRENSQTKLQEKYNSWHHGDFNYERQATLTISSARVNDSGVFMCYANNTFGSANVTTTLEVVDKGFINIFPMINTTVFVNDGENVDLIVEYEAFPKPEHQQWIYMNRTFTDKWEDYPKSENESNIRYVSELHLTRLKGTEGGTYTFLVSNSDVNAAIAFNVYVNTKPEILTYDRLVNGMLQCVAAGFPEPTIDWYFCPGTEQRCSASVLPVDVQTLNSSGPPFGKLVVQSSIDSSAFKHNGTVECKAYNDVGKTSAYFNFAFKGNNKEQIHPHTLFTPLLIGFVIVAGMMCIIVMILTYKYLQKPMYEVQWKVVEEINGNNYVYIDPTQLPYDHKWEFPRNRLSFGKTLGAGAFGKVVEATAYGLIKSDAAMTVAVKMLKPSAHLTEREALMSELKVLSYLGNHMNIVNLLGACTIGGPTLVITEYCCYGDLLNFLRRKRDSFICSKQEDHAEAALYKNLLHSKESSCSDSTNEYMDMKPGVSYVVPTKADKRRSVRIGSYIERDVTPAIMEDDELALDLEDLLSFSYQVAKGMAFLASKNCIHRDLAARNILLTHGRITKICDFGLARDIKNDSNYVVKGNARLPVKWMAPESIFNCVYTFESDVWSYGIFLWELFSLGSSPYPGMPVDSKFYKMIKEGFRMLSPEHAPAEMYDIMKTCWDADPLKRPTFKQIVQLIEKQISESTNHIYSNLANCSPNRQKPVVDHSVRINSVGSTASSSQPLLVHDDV

[3] = target: panel of more than 300 wild-type and mutant kinases (313 kinase panel) (Homo sapiens, UniProt P06241)
panel of more than 300 wild-type and mutant kinases (313 kinase panel) (Homo sapiens, UniProt P06241), sequence (P06241 whole entry, change not shown): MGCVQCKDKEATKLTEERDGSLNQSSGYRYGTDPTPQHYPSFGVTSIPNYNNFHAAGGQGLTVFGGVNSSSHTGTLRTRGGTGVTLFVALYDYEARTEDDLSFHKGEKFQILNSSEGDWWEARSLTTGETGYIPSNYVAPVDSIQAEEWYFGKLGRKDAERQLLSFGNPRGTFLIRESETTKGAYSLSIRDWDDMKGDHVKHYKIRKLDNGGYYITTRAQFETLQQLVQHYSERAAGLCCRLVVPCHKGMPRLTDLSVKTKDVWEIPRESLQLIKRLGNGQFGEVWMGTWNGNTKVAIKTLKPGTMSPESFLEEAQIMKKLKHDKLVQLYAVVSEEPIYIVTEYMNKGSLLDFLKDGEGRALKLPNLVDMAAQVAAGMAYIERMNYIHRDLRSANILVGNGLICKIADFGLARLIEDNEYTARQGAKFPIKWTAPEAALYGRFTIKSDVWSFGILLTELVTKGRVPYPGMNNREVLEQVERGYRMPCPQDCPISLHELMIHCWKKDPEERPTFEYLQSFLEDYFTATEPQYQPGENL

[4] = target: panel of more than 300 wild-type and mutant kinases (313 kinase panel) (Homo sapiens, UniProt Q9Y6M4)
panel of more than 300 wild-type and mutant kinases (313 kinase panel) (Homo sapiens, UniProt Q9Y6M4), sequence (Q9Y6M4 whole entry, change not shown): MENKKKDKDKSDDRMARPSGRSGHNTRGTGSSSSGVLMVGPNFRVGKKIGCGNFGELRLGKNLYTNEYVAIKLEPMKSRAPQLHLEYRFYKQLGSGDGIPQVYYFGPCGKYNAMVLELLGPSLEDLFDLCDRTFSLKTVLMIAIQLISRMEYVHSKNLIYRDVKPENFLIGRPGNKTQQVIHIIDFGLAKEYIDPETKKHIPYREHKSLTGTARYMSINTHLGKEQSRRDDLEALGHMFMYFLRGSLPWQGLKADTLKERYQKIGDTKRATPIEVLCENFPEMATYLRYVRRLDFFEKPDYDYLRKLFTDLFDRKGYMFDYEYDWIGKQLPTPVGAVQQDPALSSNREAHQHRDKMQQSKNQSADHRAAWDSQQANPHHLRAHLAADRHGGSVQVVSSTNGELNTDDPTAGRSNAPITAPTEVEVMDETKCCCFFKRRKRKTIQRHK

[5] = target: T2, panel of more than 300 wild-type and mutant kinases (313 kinase panel) (Homo sapiens, UniProt Q15831)
T2 sequence (Q15831 1-433): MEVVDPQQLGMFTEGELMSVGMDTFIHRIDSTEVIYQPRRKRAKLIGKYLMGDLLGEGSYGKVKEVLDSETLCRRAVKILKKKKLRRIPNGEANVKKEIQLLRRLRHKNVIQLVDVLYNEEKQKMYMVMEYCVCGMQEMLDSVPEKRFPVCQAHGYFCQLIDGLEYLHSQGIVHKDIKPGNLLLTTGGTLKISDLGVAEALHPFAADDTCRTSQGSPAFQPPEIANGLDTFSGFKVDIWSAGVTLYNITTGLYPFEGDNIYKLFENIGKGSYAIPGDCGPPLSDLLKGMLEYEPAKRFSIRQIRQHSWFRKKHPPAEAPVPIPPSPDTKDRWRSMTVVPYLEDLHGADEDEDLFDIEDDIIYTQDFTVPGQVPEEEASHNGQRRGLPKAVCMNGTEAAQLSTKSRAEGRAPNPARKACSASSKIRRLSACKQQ

[6] = target: T3, panel of more than 300 wild-type and mutant kinases (313 kinase panel) (Homo sapiens, UniProt O15264)
T3 sequence (O15264 1-365): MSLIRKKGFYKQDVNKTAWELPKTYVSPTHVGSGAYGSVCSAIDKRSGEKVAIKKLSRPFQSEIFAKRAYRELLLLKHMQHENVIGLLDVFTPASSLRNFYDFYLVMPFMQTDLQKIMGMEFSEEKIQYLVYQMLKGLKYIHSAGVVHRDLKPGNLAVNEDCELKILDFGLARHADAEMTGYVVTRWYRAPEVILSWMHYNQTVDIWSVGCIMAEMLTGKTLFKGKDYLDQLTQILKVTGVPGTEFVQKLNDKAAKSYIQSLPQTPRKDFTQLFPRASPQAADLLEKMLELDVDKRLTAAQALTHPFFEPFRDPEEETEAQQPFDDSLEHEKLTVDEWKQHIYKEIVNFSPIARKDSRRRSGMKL

SMILES | %-inhibition of LATS2 ([1]; kinase LATS2, compound at 1 μM) [%] | %-inhibition of KIT ([2]; kinase KIT, compound at 1 μM) [%] | %-inhibition of FYN ([3]; kinase FYN, compound at 1 μM) [%] | %-inhibition, CK1γ3 ([4]; kinase CK1γ3, 1 μM compound) [%] | %-inhibition of LKB1 ([5]; kinase LKB1, compound at 1 μM) [%] | %-inhibition of p38δ ([6]; kinase p38δ, 1 μM) [%] | %-inhibition of LATS2 ([1]; 1 µM) [%] | %-inhibition of KIT ([2]; 1 µM) [%] | %-inhibition of p38δ ([6]; 1 µM) [%] | %-inhibition of FYN ([3]; 1 µM) [%] | %-inhibition, CK1γ3 ([4]; 1 µM) [%] | %-inhibition of LKB1 ([5]; 1 µM) [%]
COc1cc(Nc2c(C#N)cnc3cc(OCCCN4CCN(C)CC4)c(OC)cc23)c(Cl)cc1Cl [bosutinib] | 28 | 23 | 95 | 3.3 | -5.27 | – | – | – | – | – | – | –
COc1cc2nccc(Oc3ccc(NC(=O)C4(C(=O)Nc5ccc(F)cc5)CC4)cc3)c2cc1OC [cabozantinib] | -5.61 | 97 | 91 | 5 | -3.17 | 47 | – | – | – | – | – | –
C[C@@H](Oc1cc(-c2cnn(C3CCNCC3)c2)cnc1N)c1c(Cl)ccc(F)c1Cl [crizotinib] | -6 | 16 | 42 | 4 | -1.39 | -3.41 | – | – | – | – | – | –
CC(C)(C)c1nc(-c2cccc(NS(=O)(=O)c3c(F)cccc3F)c2F)c(-c2ccnc(N)n2)s1 [dabrafenib] | 0.57 | 59 | – | – | 4.34 | -3.43 | – | – | – | – | – | –
Cc1nc(Nc2ncc(C(=O)Nc3c(C)cccc3Cl)s2)cc(N2CCN(CCO)CC2)n1 [dasatinib] | -7 | – | 100 | – | 0.734 | 0.799 | – | – | – | – | – | –
C#Cc1cccc(Nc2ncnc3cc(OCCOC)c(OCCOC)cc23)c1 [erlotinib] | – | – | – | – | – | – | -8 | 32 | 6 | 34 | -0.719 | 2
CO[C@H]1C[C@@H]2CC[C@@H](C)[C@@](O)(O2)C(=O)C(=O)N2CCCC[C@H]2C(=O)O[C@H]([C@H](C)C[C@@H]2CC[C@@H](OCCO)[C@H](OC)C2)CC(=O)[C@H](C)/C=C(\C)[C@@H](O)[C@@H](OC)C(=O)[C@H](C)C[C@H](C)/C=C/C=C/C=C/1C [everolimus] | -13 | -10 | -0.928 | -13 | -9 | -9 | – | – | – | – | – | –
O=S(=O)(c1cccc2cnccc12)N1CCCNCC1 [fasudil] | 22 | -0.648 | 8.5 | -4 | 6 | -4.39 | – | – | – | – | – | –
CS(=O)(=O)CCNCc1ccc(-c2ccc3ncnc(Nc4ccc(OCc5cccc(F)c5)c(Cl)c4)c3c2)o1 [lapatinib] | -8 | – | 1.29 | – | 4 | 5.43 | – | 9 | – | – | -0.863 | –
